# Results taken from patent publication US6919090B2, “Active substance combinations with insecticidal and acaricidal properties” (priority 2000, dated 2005).
# Columns and labels:
# Type in all cases: in vivo
# [1] = system: resistant caterpillars of the diamondback moth (Plutella xylostella); experiment: Plutella Test (resistant), cabbage leaf dip
# Text: (§1) The expected action for a given combination of two active compounds can be calculated as follows, using the formula of S. R. Colby, Weeds 15 (1967), 20-22: • If • X is the kill rate, expressed as % of the untreated control, when employing active compound A at an application rate of m g/ha or in a concentration of m ppm, • Y is the kill rate, expressed as % of the untreated control, when employing active compound B at an application rate of n g/ha or in a concentration of n ppm and • E is the kill rate, expressed as % of the untreated control, when employing active compounds A and B at application rates of m and n g/ha or in a concentration of m and n ppm, • then [formula]
# (§2) If the actual insecticidal kill rate exceeds the calculated value, the action of the combination is superadditive, i.e. a synergistic effect is present. In this case, the actually observed kill rate must exceed the value calculated using the above formula for the expected kill rate (E).
# Plutella Test (Resistant)
# To produce a suitable preparation of active compound, 1 part by weight of active compound is mixed with the stated amounts of solvent and emulsifier, and the concentrate is diluted with emulsifier-containing water to the desired concentration.
# Cabbage leaves (Brassica oleracea) are treated by being dipped into the preparation of active compound of the desired concentration and are populated with resistant caterpillars of the diamondback moth (Plutella xylostella) while the leaves are still moist.
# (§3) After the desired period of time, the kill in % is determined. 100% means that all caterpillars have been killed; 0% means that none of the caterpillars have been killed. The kill rates determined are calculated using Colby's formula.
# [2] = system: normally sensitive caterpillars of the diamondback moth (Plutella xylostella); experiment: Plutella Test (normally sensitive), cabbage leaf dip
# Text: as §1, §2
# Plutella Test (Normally Sensitive)
# To produce a suitable preparation of active compound, 1 part by weight of active compound is mixed with the stated amounts of solvent and emulsifier, and the concentrate is diluted with emulsifier-containing water to the desired concentration. […]
# After the desired period of time, the kill in % is determined. […] The kill rates determined are calculated using Colby's formula.
# [3] = system: caterpillars of the army worm (Spodoptera frugiperda); experiment: Spodoptera frugiperda Test, cabbage leaf dip
# Text: as §1, §2
# Spodoptera frugiperda Test
# To produce a suitable preparation of active compound, 1 part by weight of active compound is mixed with the stated amounts of solvent and emulsifier, and the concentrate is diluted with emulsifier-containing water to the desired concentration. Cabbage leaves (Brassica oleracea) are treated by being dipped into the preparation of active compound of the desired concentration and are populated with caterpillars of the army worm (Spodoptera frugiperda) while the leaves are still moist.
# as §3
molecule,measurement,setting,value
Cc1cc(C)c(C2=C(OC(=O)CC(C)(C)C)C3(CCCC3)OC2=O)c(C)c1 [Ex. I-b-1],Kill rate in % after 7 d,[1]; 100 ppm,35%
same,Kill rate in % after 7 d,[1]; 500 ppm,40%
same,Kill rate in % after 3 d,[2]; 100 ppm,40%
same,Kill rate in % after 7 d,[3]; 100 ppm,0%
"N#Cc1nn(-c2c(Cl)cc(C(F)(F)F)cc2Cl)c(N)c1[S+]([O-])C(F)(F)F (stereo not drawn) [Fipronil, fipronil]",Kill rate in % after 7 d,[1]; 0.032 ppm,40%
same,Kill rate in % after 7 d,[3]; 0.8 ppm,20%
"COC(=O)N(C(=O)N1COC2(C(=O)OC)Cc3cc(Cl)ccc3C2=N1)c1ccc(OC(F)(F)F)cc1 (stereo not drawn) [Indoxacarb, indoxacarb]",Kill rate in % after 7 d,[1]; 0.16 ppm,90%
same,Kill rate in % after 3 d,[2]; 0.16 ppm,15%
Emamectin-benzoate,Kill rate in % after 7 d,[3]; 0.16 ppm,55%
